Assay results: patent US12577206B2 (BRISTOL-MYERS SQUIBB COMPANY, priority 2020, dated 2026)

Experiments:
human FPR1 = biological target: T1, human FPR1 (Homo sapiens, UniProt P21462); assay: FPR1 cyclic adenosine monophosphate (cAMP) assay; assay type: cell-based; conditions: CHO cells overexpressing human FPR1; forskolin 10 μM; inhibition of cAMP production; HTRF; read-out: hFPR1 cAMP2 EC50
T1 sequence (P21462 1-350): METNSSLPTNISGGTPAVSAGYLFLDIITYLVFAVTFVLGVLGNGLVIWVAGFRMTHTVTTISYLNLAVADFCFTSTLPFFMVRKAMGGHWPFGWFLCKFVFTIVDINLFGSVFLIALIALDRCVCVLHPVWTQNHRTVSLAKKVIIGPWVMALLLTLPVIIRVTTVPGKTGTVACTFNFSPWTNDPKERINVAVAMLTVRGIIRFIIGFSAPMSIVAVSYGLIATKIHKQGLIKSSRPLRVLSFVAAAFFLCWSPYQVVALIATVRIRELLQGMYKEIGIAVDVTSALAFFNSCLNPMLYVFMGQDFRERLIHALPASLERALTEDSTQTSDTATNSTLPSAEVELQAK
Description: (§1) N-formyl peptide receptors (FPRs) are a family of chemo attractant receptors that facilitate leukocyte response during inflammation. FPRs belong to the seven-transmembrane G protein-coupled receptor superfamily and are linked to inhibitory G-proteins (Gi). Three family members (FPR1, FPR2 and FPR3) have been identified in humans and are predominantly found in myeloid cells with varied distribution and have also been reported in multiple organs and tissues. After agonist binding, the FPRs activate a multitude of physiological pathways, such as intra cellular signaling transduction, Ca^2+ mobilization and transcription. The family interacts with a diverse set of ligands that includes proteins, polypeptides and fatty acid metabolites which activate both pro-inflammatory and pro-resolution downstream responses. FPR2 and FPR1 Cyclic Adenosine Monophosphate (cAMP) Assays were used to measure the in vitro activity of the compounds disclosed in this application.
(§2) FPR2 and FPR1 Cyclic Adenosine Monophosphate (cAMP) Assays. A mixture of forskolin (5 μM final for FPR2 or 10 μM final for FPR1) and IBMX (200 μM final) were added to 384-well Proxiplates (Perkin-Elmer) pre-dotted with test compounds in DMSO (1% final) at final concentrations in the range of 0.020 nM to 100 μM. Chinese Hamster Ovary cells (CHO) overexpressing human FPR1 or human FPR2 receptors were cultured in F-12 (Ham's) medium supplemented with 10% qualified FBS, 250 μg/mL zeocin and 300 μg/mL hygromycin (Life Technologies). Reactions were initiated by adding 2,000 human FPR2 cells per well or 4,000 human FPR1 cells per well in Dulbecco's PBS (with calcium and magnesium) (Life Technologies) supplemented with 0.1% BSA (Perkin-Elmer). The reaction mixtures were incubated for 30 min at rt. The level of intracellular cAMP was determined using the HTRF HiRange cAMP assay reagent kit (Cisbio) according to manufacturer's instruction. Solutions of cryptate conjugated anti-cAMP and d2 flurorophore-labeled cAMP were made in a supplied lysis buffer separately. Upon completion of the reaction, the cells were lysed with equal volume of the d2-cAMP solution and anti-cAMP solution. […] The potency and activity of a compound to inhibit cAMP production was then determined by fitting to a 4-parametric logistic equation from a plot of cAMP level versus compound concentrations.

human FPR2 = biological target: T2, human FPR2 (Homo sapiens, UniProt P25090); assay: FPR2 cyclic adenosine monophosphate (cAMP) assay; assay type: cell-based; conditions: CHO cells overexpressing human FPR2; forskolin 5 μM; inhibition of cAMP production; HTRF; read-out: hFPR2 cAMP2 EC50
T2 sequence (P25090 1-351): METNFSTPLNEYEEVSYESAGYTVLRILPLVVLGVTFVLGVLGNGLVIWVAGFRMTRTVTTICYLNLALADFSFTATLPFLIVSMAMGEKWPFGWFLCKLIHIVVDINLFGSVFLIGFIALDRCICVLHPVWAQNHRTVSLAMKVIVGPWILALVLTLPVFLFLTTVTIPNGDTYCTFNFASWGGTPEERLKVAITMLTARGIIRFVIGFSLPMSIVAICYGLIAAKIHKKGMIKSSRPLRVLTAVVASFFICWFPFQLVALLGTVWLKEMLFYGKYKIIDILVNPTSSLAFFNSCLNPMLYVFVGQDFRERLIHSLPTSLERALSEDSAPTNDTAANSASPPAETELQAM
Description: as §1, §2

SMILES | EC50 (human FPR1) [nM] | EC50 (human FPR2) [nM]
COc1ccc(-c2c(NC(=O)c3ccc(OC(F)F)cc3)c(=O)n(-c3ccccc3)n2C)cc1 [Example 7, 4-(difluoromethoxy)-N-[5-(4-methoxyphenyl)-1-methyl-3-oxo-2-phenyl-2,3-dihydro-1H-pyrazol-4-yl]benzamide] | 300 | 10
COc1cc(F)c(-c2c(NC(=O)c3ccc(OC(F)(F)F)cc3)c(=O)n(-c3ccc(F)cc3)n2C)c(F)c1 [Example 10, N-[5-(2,6-difluoro-4-methoxyphenyl)-2-(4-fluorophenyl)-1-methyl-3-oxo-2,3-dihydro-1H-pyrazol-4-yl]-4-(trifluoromethoxy)benzamide] | 920 | 14
COc1cc(F)c(-c2c(NC(=O)c3ccc(OC(F)F)cc3)c(=O)n(-c3ccc(F)cc3)n2C)c(F)c1 [Example 12, N-[5-(2,6-difluoro-4-methoxyphenyl)-2-(4-fluorophenyl)-1-methyl-3-oxo-2,3-dihydro-1H-pyrazol-4-yl]-4-(difluoromethoxy)benzamide] | 1600 | 17
COc1cc(F)c(-c2c(NC(=O)c3ccc(OC(F)F)cc3)c(=O)n(C3CC3)n2C)c(F)c1 [Example 13, N-[2-cyclopropyl-5-(2,6-difluoro-4-methoxyphenyl)-1-methyl-3-oxo-2,3-dihydro-1H-pyrazol-4-yl]-4-(difluoromethoxy)benzamide] | 2400 | 22
COc1cc(F)c(-c2c(NC(=O)c3ccc(OC(F)F)cc3)c(=O)n(-c3cc(F)ccc3C)n2C)c(F)c1 [Example 14, N-[5-(2,6-difluoro-4-methoxyphenyl)-2-(5-fluoro-2-methylphenyl)-1-methyl-3-oxo-2,3-dihydro-1H-pyrazol-4-yl]-4-(difluoromethoxy)benzamide] | > 10000 | 23
COc1cc(F)c(-c2c(NC(=O)c3ccc(Cl)cc3)c(=O)n(-c3ccc(F)cc3)n2C)c(F)c1 [Example 15, 4-chloro-N-[5-(2,6-difluoro-4-methoxyphenyl)-2-(4-fluorophenyl)-1-methyl-3-oxo-2,3-dihydro-1H-pyrazol-4-yl]benzamide] | > 10000 | 30
COc1cc(F)c(-c2c(NC(=O)c3ccc(OC(F)F)cc3)c(=O)n(C(C)C)n2C)c(F)c1 [Example 18, N-[5-(2,6-difluoro-4-methoxyphenyl)-1-methyl-3-oxo-2-(propan-2-yl)-2,3-dihydro-1H-pyrazol-4-yl]-4-(difluoromethoxy)benzamide] | 4100 | 53
CCOC(=O)Cn1c(=O)c(NC(=O)c2ccc(OC(F)F)cc2)c(-c2c(F)cc(OC)cc2F)n1C [Example 21, ethyl 2-[3-(2,6-difluoro-4-methoxyphenyl)-4-[4-(difluoromethoxy)benzamido]-2-methyl-5-oxo-2,5-dihydro-1H-pyrazol-1-yl]acetate] | > 10000 | 140
COc1cc(F)c(-c2c(NC(=O)c3ccc(-n4cccn4)cc3)c(=O)n(-c3ccccc3)n2C)c(F)c1 [Example 23, N-[5-(2,6-difluoro-4-methoxyphenyl)-1-methyl-3-oxo-2-phenyl-2,3-dihydro-1H-pyrazol-4-yl]-4-(1H-pyrazol-1-yl)benzamide] | 3000 | 150
COc1cc(F)c(-c2c(NC(=O)c3ccc(OC(F)(F)F)cc3)c(=O)n(-c3c(F)cccc3F)n2C)c(F)c1 [Example 26, N-[5-(2,6-difluoro-4-methoxyphenyl)-2-(2,6-difluorophenyl)-1-methyl-3-oxo-2,3-dihydro-1H-pyrazol-4-yl]-4-(trifluoromethoxy)benzamide] | 1100 | 9
COc1cc(F)c(-c2c(NC(=O)c3ccc(OC(F)F)cc3)c(=O)n(-c3c(F)cccc3F)n2C)c(F)c1 [Example 27, N-[5-(2,6-difluoro-4-methoxyphenyl)-2-(2,6-difluorophenyl)-1-methyl-3-oxo-2,3-dihydro-1H-pyrazol-4-yl]-4-(difluoromethoxy)benzamide] | > 10000 | 10
COc1cc(F)c(-c2c(NC(=O)c3ccc(OC(F)(F)F)cc3)c(=O)n(-c3ccccc3F)n2C)c(F)c1 [Example 28, N-[5-(2,6-difluoro-4-methoxyphenyl)-2-(2-fluorophenyl)-1-methyl-3-oxo-2,3-dihydro-1H-pyrazol-4-yl]-4-(trifluoromethoxy)benzamide] | 2500 | 10
COc1cc(F)c(-c2c(NC(=O)c3ccc(Cl)cc3)c(=O)n(-c3ccccc3F)n2C)c(F)c1 [Example 30, 4-chloro-4-N-[5-(2,6-difluoro-4-methoxyphenyl)-2-(2-fluorophenyl)-1-methyl-3-oxo-2,3-dihydro-1H-pyrazol-4-yl]benzamide] | > 10000 | 18
COc1cc(F)c(-c2c(NC(=O)c3ccc(OC(F)(F)F)cc3)c(=O)n(-c3ncccc3F)n2C)c(F)c1 [Example 32, N-[5-(2,6-difluoro-4-methoxyphenyl)-2-(3-fluoropyridin-2-yl)-1-methyl-3-oxo-2,3-dihydro-1H-pyrazol-4-yl]-4-(trifluoromethoxy)benzamide] | 6500 | 8

Results, then the compound that gave them:

EC50 (human FPR1) [nM] | EC50 (human FPR2) [nM] | SMILES
1300 | 8 | COc1cc(F)c(-c2c(NC(=O)c3ccc(OC(F)(F)F)cc3)c(=O)n(-c3ccccc3)n2C)c(F)c1 [Example 4, N-[5-(2,6-difluoro-4-methoxyphenyl)-1-methyl-3-oxo-2-phenyl-2,3-dihydro-1H-pyrazol-4-yl]-4-(trifluoromethoxy)benzamide]
2900 | 10 | COc1cc(F)c(-c2c(NC(=O)c3ccc(C(F)(F)F)cc3)c(=O)n(-c3ccccc3)n2C)c(F)c1 [Example 5, N-[5-(2,6-difluoro-4-methoxyphenyl)-1-methyl-3-oxo-2-phenyl-2,3-dihydro-1H-pyrazol-4-yl]-4-(trifluoromethyl)benzamide]
> 10000 | 11 | COc1cc(F)c(-c2c(NC(=O)c3ccc(Cl)cc3)c(=O)n(-c3ccccc3)n2C)c(F)c1 [Example 9, 4-chloro-N-[5-(2,6-difluoro-4-methoxyphenyl)-1-methyl-3-oxo-2-phenyl-2,3-dihydro-1H-pyrazol-4-yl]benzamide]
> 10000 | 30 | COc1cc(F)c(-c2c(NC(=O)c3ccc(C4CC4)cc3)c(=O)n(-c3ccccc3)n2C)c(F)c1 [Example 16, 4-cyclopropyl-N-[5-(2,6-difluoro-4-methoxyphenyl)-1-methyl-3-oxo-2-phenyl-2,3-dihydro-1H-pyrazol-4-yl]benzamide]
1700 | 51 | COc1cc(F)c(-c2c(NC(=O)c3ccc(C(F)(F)F)cc3)c(=O)n(-c3ccc(F)cc3)n2C)c(F)c1 [Example 17, N-[5-(2,6-difluoro-4-methoxyphenyl)-2-(4-fluorophenyl)-1-methyl-3-oxo-2,3-dihydro-1H-pyrazol-4-yl]-4-(trifluoromethyl)benzamide]
> 10000 | 220 | COc1cc(F)c(-c2c(NC(=O)c3ccc(OC(F)(F)F)cn3)c(=O)n(-c3ccccc3)n2C)c(F)c1 [Example 24, N-[5-(2,6-difluoro-4-methoxyphenyl)-1-methyl-3-oxo-2-phenyl-2,3-dihydro-1H-pyrazol-4-yl]-5-(trifluoromethoxy)pyridine-2-carboxamide]
> 10000 | 280 | COc1cc(F)c(-c2c(NC(=O)c3ccc(Cl)nc3)c(=O)n(-c3ccccc3)n2C)c(F)c1 [Example 25, 6-chloro-N-[5-(2,6-difluoro-4-methoxyphenyl)-1-methyl-3-oxo-2-phenyl-2,3-dihydro-1H-pyrazol-4-yl]pyridin-3-carboxamide]
